Test systems include 786-0 renal; ACHN renal; COLO 205 colon; HL-60(TB) leukemia; HT29 colon; KM12 colon; M14 melanoma; OVCAR-4 ovarian; SW-620 colon; UACC-62 melanoma.
Common to all, as to experiment: growth of human tumour cells (NCI), 48 h

This passage reports GI50 and TGI results from PubChem BioAssay (NCI).

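Where inhibition never reached the appropriate level, the endpoint shown equals the highest concentration tested. Otherwise, values were interpolated linearly from a five-concentration, 48-hour dose response in 96-well plates. Abbreviation: GI50, concentration required for 50% inhibition of growth. At the TGI there is no net growth.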

On to `CC(C)=CCc1cc2c(cc1O)C1=C(C(=O)C3=C(NCCS3(=O)=O)C1=O)C(C=C(C)C)O2` (stereo not given), for which the GI50 in the assay on 786-0 renal was 9.97 µM; in the assay with ACHN renal, 10.7 µM; with COLO 205 colon it was 5.53 µM; in the assay with HL-60(TB) leukemia it was 4.43 µM; with HT29 colon, 7.35 µM; with KM12 colon, 7.12 µM. Also, the GI50 was 5.85 µM with M14 melanoma, 3.31 µM in the assay on OVCAR-4 ovarian, 5 µM in the assay on SW-620 colon and 3.39 µM in the assay with UACC-62 melanoma. Moreover, the TGI in the assay with 786-0 renal is greater than 16.7 µM; with ACHN renal, greater than 16.7 µM; in the assay on COLO 205 colon, greater than 16.7 µM; in the assay with HL-60(TB) leukemia it was 13.5 µM; with HT29 colon, greater than 16.7 µM; with KM12 colon it was greater than 16.7 µM. The TGI in the assay on M14 melanoma is greater than 16.7 µM; with OVCAR-4 ovarian, greater than 16.7 µM; with SW-620 colon it was greater than 16.7 µM; with UACC-62 melanoma, 8.79 µM.

On to `O=S(=O)(NCCCNc1cc(-c2cn(-c3ccccc3)nc2-c2cccc(O)c2)ccn1)c1ccc(C(F)(F)F)cc1`, for which the GI50 in the assay with 786-0 renal is 1.57 µM; with ACHN renal, 3.08 µM; in the assay on COLO 205 colon it was 1.78 µM; in the assay on HL-60(TB) leukemia, 2.52 µM; with HT29 colon, 1.23 µM; with KM12 colon, 1.89 µM. In addition, the GI50 in the assay with M14 melanoma is 1.66 µM; in the assay with OVCAR-4 ovarian, 1.87 µM; with SW-620 colon it was 1.78 µM; with UACC-62 melanoma, 1.53 µM. The TGI in the assay with 786-0 renal came out at 3.7 µM; in the assay with ACHN renal it was 10.7 µM; with COLO 205 colon, 3.54 µM; in the assay with HL-60(TB) leukemia it was 6.2 µM; in the assay with HT29 colon, 3.18 µM; in the assay on KM12 colon, 4.49 µM. In addition, the TGI in the assay on M14 melanoma was 3.24 µM; with OVCAR-4 ovarian, 5.78 µM; in the assay with SW-620 colon, 3.93 µM; in the assay with UACC-62 melanoma it was 3.17 µM.

As for `COC(=O)c1c2c(c(C)[n+]([O-])c1C)C(=O)C(NCc1ccc(OC)cc1)=CC2=O`, the GI50 with 786-0 renal is 3.15 µM; with ACHN renal it was 2.35 µM; with COLO 205 colon it was 0.839 µM; in the assay with HL-60(TB) leukemia, 1.67 µM; with HT29 colon it was 2.15 µM; in the assay with KM12 colon, 2.19 µM. The GI50 is 1.81 µM in the assay with M14 melanoma, 1.12 µM in the assay with OVCAR-4 ovarian, 1.95 µM in the assay with SW-620 colon and 1.72 µM with UACC-62 melanoma. The TGI was 18.8 µM with 786-0 renal; 9.11 µM in the assay with ACHN renal; 2.75 µM with COLO 205 colon; 5.25 µM in the assay on HL-60(TB) leukemia; greater than 100 µM with HT29 colon; 8.68 µM in the assay with KM12 colon. Further, the TGI in the assay with M14 melanoma is 3.71 µM; in the assay on OVCAR-4 ovarian it was 2.38 µM; in the assay with SW-620 colon it was 4.26 µM; in the assay with UACC-62 melanoma, 3.62 µM.

On to `CC(=O)OC(C)(C)C1CC[C@]2(C)/C=C/C(C)C[C@@H](O)/C=C(\C)CC(O)C12` (stereo not given in full), for which the TGI in the assay on 786-0 renal, in the assay on ACHN renal, in the assay with COLO 205 colon, in the assay with HL-60(TB) leukemia, with HT29 colon and with KM12 colon was greater than 100 µM throughout. The TGI in the assay with M14 melanoma, with OVCAR-4 ovarian, in the assay with SW-620 colon and in the assay with UACC-62 melanoma was greater than 100 µM each time.

Consider `CN(C)CCNC(=O)c1cc2c3cc(Cl)ccc3[nH]c2c2ncccc12`, for which the GI50 in the assay with 786-0 renal is 4.83 µM; in the assay on ACHN renal, 1.62 µM; in the assay with COLO 205 colon, 1.97 µM; in the assay with HL-60(TB) leukemia, 1.97 µM; with HT29 colon it was 2.33 µM; with KM12 colon it was 3.03 µM. Besides, the GI50 was 1.7 µM with M14 melanoma, 4.89 µM in the assay with OVCAR-4 ovarian, 1.47 µM in the assay with SW-620 colon and 1.94 µM with UACC-62 melanoma. The TGI in the assay with 786-0 renal came out at 18.1 µM; in the assay with ACHN renal, 6.98 µM; with COLO 205 colon it was 10.5 µM; with HL-60(TB) leukemia it was 4.02 µM; in the assay on HT29 colon, 10.3 µM; in the assay on KM12 colon, 13.7 µM. Also, the TGI in the assay with M14 melanoma stood at 3.68 µM; with OVCAR-4 ovarian it was 19.6 µM; with SW-620 colon, 3.52 µM; in the assay with UACC-62 melanoma, 3.77 µM.

Take `O=S1OC(c2ccccc2)(c2ccccc2)C(c2ccccc2)(c2ccccc2)O1`: the TGI in the assay with 786-0 renal, with ACHN renal, with COLO 205 colon, in the assay with HL-60(TB) leukemia, with HT29 colon and in the assay on KM12 colon was greater than 100 µM throughout. Also, the TGI in the assay with M14 melanoma, in the assay with OVCAR-4 ovarian, with SW-620 colon and in the assay on UACC-62 melanoma was greater than 100 µM throughout.
